This data set concerns CCRIS mutagenicity, Ames/micronucleus/aberration tests. The data set can be described thus: CCRIS mutagenicity studies.
The mark [1] stands for this setting: Test System: AMES SALMONELLA TYPHIMURIUM, Strain/Indicator: TA100, Metabolic Activation: NONE, Method: STANDARD PLATE.
Where [2] appears, read: Test System: AMES SALMONELLA TYPHIMURIUM, Strain/Indicator: TA1535, Metabolic Activation: NONE, Method: STANDARD PLATE.
The mark [3] stands for this setting: Test System: AMES SALMONELLA TYPHIMURIUM, Strain/Indicator: TA98, Metabolic Activation: NONE, Method: STANDARD PLATE.
Setting [4] is: Test System: AMES SALMONELLA TYPHIMURIUM, Strain/Indicator: TA98, Metabolic Activation: RAT, LIVER, S-9, AROCLOR 1254, Method: STANDARD PLATE.
[5] abbreviates: Test System: AMES SALMONELLA TYPHIMURIUM, Strain/Indicator: TA100, Metabolic Activation: RAT, LIVER, S-9, AROCLOR 1254, Method: STANDARD PLATE.
Setting [6] is: Test System: AMES SALMONELLA TYPHIMURIUM, Strain/Indicator: TA1535, Metabolic Activation: RAT, LIVER, S-9, AROCLOR 1254, Method: STANDARD PLATE.
[7] abbreviates: Test System: AMES SALMONELLA TYPHIMURIUM, Strain/Indicator: TA1537, Metabolic Activation: NONE, Method: STANDARD PLATE.
[8] abbreviates: Test System: AMES SALMONELLA TYPHIMURIUM, Strain/Indicator: TA1537, Metabolic Activation: RAT, LIVER, S-9, AROCLOR 1254, Method: STANDARD PLATE.

The source made the active and inactive calls. The rule behind the calls is not given here.

`c1ccc2c(CC3CO3)cccc2c1` (stereo not drawn): the mutagenic call is “active; positive” (Test System: AMES SALMONELLA TYPHIMURIUM, Strain/Indicator: TA100, Metabolic Activation: NONE, Method: PREINCUBATION); “active; positive” under setting [1]; “active; positive” (Test System: AMES SALMONELLA TYPHIMURIUM, Strain/Indicator: TA104, Metabolic Activation: NONE, Method: STANDARD PLATE); “active; positive” (Test System: AMES SALMONELLA TYPHIMURIUM, Strain/Indicator: TA1535, Metabolic Activation: NONE, Method: PREINCUBATION); “active; positive” under setting [2]; “active; positive” (Test System: AMES SALMONELLA TYPHIMURIUM, Strain/Indicator: TA4001, Metabolic Activation: NONE, Method: STANDARD PLATE). The mutagenic call (Test System: AMES SALMONELLA TYPHIMURIUM, Strain/Indicator: TA4006, Metabolic Activation: NONE, Method: STANDARD PLATE) was “active; positive”.

Take `CN(C)CCC=C1c2ccccc2CCc2ccccc21`: the mutagenic call is, setting by setting: under setting [3], “inactive; negative”; under setting [4], “inactive; negative”; under setting [1], “inactive; negative”; under setting [5], “inactive; negative”; under setting [2], “inactive; negative”; under setting [6], “inactive; negative”. The mutagenic call is, setting by setting: under setting [7], “inactive; negative”; under setting [8], “inactive; negative”.

Consider `NC(=O)CN1CC(O)CC1=O` (stereo not drawn), for which the mutagenic call reads like this: (Test System: AMES SALMONELLA TYPHIMURIUM, Strain/Indicator: TA98, Metabolic Activation: NONE) “inactive; negative”; (Test System: AMES SALMONELLA TYPHIMURIUM, Strain/Indicator: TA98, Metabolic Activation: RAT, LIVER, S-9, AROCLOR 1254) “inactive; negative”; (Test System: AMES SALMONELLA TYPHIMURIUM, Strain/Indicator: TA100, Metabolic Activation: NONE) “inactive; negative”; (Test System: AMES SALMONELLA TYPHIMURIUM, Strain/Indicator: TA100, Metabolic Activation: RAT, LIVER, S-9, AROCLOR 1254) “inactive; negative”; (Test System: AMES SALMONELLA TYPHIMURIUM, Strain/Indicator: TA1535, Metabolic Activation: NONE) “inactive; negative”; (Test System: AMES SALMONELLA TYPHIMURIUM, Strain/Indicator: TA1535, Metabolic Activation: RAT, LIVER, S-9, AROCLOR 1254) “inactive; negative”. Also, the mutagenic call by setting is: (Test System: AMES SALMONELLA TYPHIMURIUM, Strain/Indicator: TA1537, Metabolic Activation: NONE) “inactive; negative”; (Test System: AMES SALMONELLA TYPHIMURIUM, Strain/Indicator: TA1537, Metabolic Activation: RAT, LIVER, S-9, AROCLOR 1254) “inactive; negative”; (Test System: E. COLI, Strain/Indicator: WP2 UVRA, Metabolic Activation: NONE) “inactive; negative”; (Test System: E. COLI, Strain/Indicator: WP2 UVRA, Metabolic Activation: RAT, LIVER, S-9, AROCLOR 1254) “inactive; negative”.

With `COc1cc(O)c2c(=O)c(-c3ccc(O)cc3)coc2c1`, the mutagenic call (Test System: SYRIAN HAMSTER EMBRYO CELLS, Strain/Indicator: HPRT/6-THIOGUANINE, Metabolic Activation: NONE, Method: PLATE) is “inactive; negative”.

On to `CC(C)(C)N(CCO)CCO`, for which the mutagenic call is “inactive; negative” under setting [3]; “inactive; negative” under setting [4]; “inactive; negative” under setting [1]; “inactive; negative” under setting [5]; “inactive; negative” under setting [2]; “inactive; negative” under setting [6]. Also, the mutagenic call under setting [7] was “inactive; negative”; the mutagenic call under setting [8] was “inactive; negative”; the mutagenic call (Test System: AMES SALMONELLA TYPHIMURIUM, Strain/Indicator: TA1538, Metabolic Activation: NONE, Method: STANDARD PLATE) is “inactive; negative”; the mutagenic call (Test System: AMES SALMONELLA TYPHIMURIUM, Strain/Indicator: TA1538, Metabolic Activation: RAT, LIVER, S-9, AROCLOR 1254, Method: STANDARD PLATE) was “inactive; negative”; the mutagenic call (Test System: CHINESE HAMSTER OVARY, Strain/Indicator: CHO-K1-BH4, Metabolic Activation: NONE) is “inactive; negative”; the mutagenic call (Test System: CHINESE HAMSTER OVARY, Strain/Indicator: CHO-K1-BH4, Metabolic Activation: RAT, LIVER, S-9, AROCLOR 1254) is “inactive; negative”.

Source of the values: PubChem BioAssay AID1259407 (Chemical Carcinogenesis Research Information System (CCRIS), 2018).
